Source: ChEMBL document CHEMBL3132805, “Synthesis of new 13-diphenylalkyl analogues of berberine and elucidation of their base pair specificity and energetics of DNA binding” (Medchemcomm, 2014)
Active and inactive are the calls of the source. The calls are words filed in the database; no cut-off is given here.

How the values were obtained:
DNA = assay: Binding affinity to calf thymus DNA in CP buffer at pH 7.0 at 3 to 24 uM by CD spectroscopy; type: nucleic-acid assay; details: Bos taurus
[1] = Binding affinity to poly(dG-dC).poly(dG-dC) DNA (unknown origin) in CP buffer at pH 7.0 at 3 to 24 uM by CD spectroscopy
[2] = Binding affinity to duplex DNA (unknown origin) assessed as change in melting temperature
[3] = Binding affinity to poly(dA-dT).poly(dA-dT) DNA (unknown origin) in CP buffer at pH 7.0 at 3 to 24 uM by CD spectroscopy

| Structure (SMILES) | Activity (DNA) | Activity [1] | ΔTm [2] | Activity [3] |
| --- | --- | --- | --- | --- |
| COc1ccc2c(CCCCCC(c3ccccc3)c3ccccc3)c3[n+](cc2c1OC)CCc1cc2c(cc1-3)OCO2 | Active | Active | 16.6 °C | Active |
| COc1ccc2c(CCC(c3ccccc3)c3ccccc3)c3[n+](cc2c1OC)CCc1cc2c(cc1-3)OCO2 | Active | Active | 16 °C | Active |
| COc1ccc2c(CCCCC(c3ccccc3)c3ccccc3)c3[n+](cc2c1OC)CCc1cc2c(cc1-3)OCO2 | Active | Active | 17 °C | Active |
| COc1ccc2cc3[n+](cc2c1OC)CCc1cc2c(cc1-3)OCO2 |  |  | 13 °C |  |
| COc1ccc2c(C(c3ccccc3)c3ccccc3)c3[n+](cc2c1OC)CCc1cc2c(cc1-3)OCO2 | Active | Active | 6 °C | Active |
| COc1ccc2c(CCCC(c3ccccc3)c3ccccc3)c3[n+](cc2c1OC)CCc1cc2c(cc1-3)OCO2 | Active | Active | 19 °C | Active |
| COc1ccc2c(CC(c3ccccc3)c3ccccc3)c3[n+](cc2c1OC)CCc1cc2c(cc1-3)OCO2 | Active | Active | 7 °C | Active |
